{
  "source": "patent US20080038809A1",
  "about": "“ISOLATED LECTIN POLYPEPTIDES CONSISTING OF TRUNCATED […] UDP-GalNAc:POLYPEPTIDE N- ACETYLGALACTOSAMINYLTRANSFERASES” (GLYCOZYM APS, priority 2002, published 2008)",
  "key": {"GalNAc-T2 lectin domain": {"biological_target": "T1, GalNAc-T2 lectin domain (Homo sapiens, UniProt Q10471)", "T1 construct": "comprises amino acid residues 408-571 of GALNT2; made in house; host or cells: baculovirus (pAcGP67-A), virus made in Sf9, protein produced in High Five insect cells", "T1 sequence (Q10471 408-571)": "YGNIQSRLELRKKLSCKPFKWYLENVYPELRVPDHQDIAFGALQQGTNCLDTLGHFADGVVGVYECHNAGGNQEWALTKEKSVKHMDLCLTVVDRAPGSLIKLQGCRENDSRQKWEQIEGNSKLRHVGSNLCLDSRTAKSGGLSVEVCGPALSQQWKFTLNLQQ", "assay": "Inhibition of GalNAc-T2 lectin domain (T2ld) binding to GalNAc-MUC1 glycopeptide, ELISA"}, "[1]": {"biological_target": "T2, secreted soluble GalNAc-T4 (Homo sapiens, UniProt Q8N4A0)", "T2 construct": "6xHis (N); thrombin cleavage site (N); T7 antibody site (N); made in house; host or cells: baculovirus (pAcGP67A), High Five insect cells", "T2 sequence (Q8N4A0 36-578 limits assumed)": "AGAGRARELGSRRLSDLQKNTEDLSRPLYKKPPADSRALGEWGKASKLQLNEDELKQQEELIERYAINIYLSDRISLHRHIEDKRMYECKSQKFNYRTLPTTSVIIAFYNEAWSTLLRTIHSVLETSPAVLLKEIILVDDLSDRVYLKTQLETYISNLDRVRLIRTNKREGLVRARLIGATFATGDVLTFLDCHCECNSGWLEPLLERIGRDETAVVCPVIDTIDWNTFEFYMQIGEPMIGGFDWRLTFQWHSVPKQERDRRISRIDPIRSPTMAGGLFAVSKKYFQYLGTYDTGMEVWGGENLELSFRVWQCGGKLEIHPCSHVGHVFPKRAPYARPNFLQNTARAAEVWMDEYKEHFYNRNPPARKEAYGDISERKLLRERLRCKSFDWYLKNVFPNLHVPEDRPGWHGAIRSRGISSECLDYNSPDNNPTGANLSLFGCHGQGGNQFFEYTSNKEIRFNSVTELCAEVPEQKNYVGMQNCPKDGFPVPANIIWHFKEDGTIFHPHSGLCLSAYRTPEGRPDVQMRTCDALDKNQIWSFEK", "assay": "Inhibition of secreted soluble GalNAc-T4 (sT4) binding to GalNAc-MUC1 glycopeptide, ELISA", "outline": "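Plate-coated GalNAc-MUC1 glycopeptide was incubated with biotinylated soluble enzyme in PBS/0.05% Tween20 for 2 h at room temperature, after 1 h preincubation with inhibitor. Enzyme was used at end-point titer. Bound protein was detected with streptavidin-HRP and o-phenylenediamine colour development.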"}, "[2]": {"test_system": "MUC1 in CHO1d1D/MUC1F-clone2 cells", "assay": "MUC1 expression in cell lysates, immunoprecipitation and SDS-PAGE western blot (FIGS. 12-15)", "assay_type": "cell-based, Chinese Hamster", "conditions": "2 mM, 48 hours, 5E5 blot"}, "GalNAc-T7": {"biological_target": "GalNAc-T7 (Homo sapiens, UniProt Q86SF2)", "sequence (Q86SF2 whole entry)": "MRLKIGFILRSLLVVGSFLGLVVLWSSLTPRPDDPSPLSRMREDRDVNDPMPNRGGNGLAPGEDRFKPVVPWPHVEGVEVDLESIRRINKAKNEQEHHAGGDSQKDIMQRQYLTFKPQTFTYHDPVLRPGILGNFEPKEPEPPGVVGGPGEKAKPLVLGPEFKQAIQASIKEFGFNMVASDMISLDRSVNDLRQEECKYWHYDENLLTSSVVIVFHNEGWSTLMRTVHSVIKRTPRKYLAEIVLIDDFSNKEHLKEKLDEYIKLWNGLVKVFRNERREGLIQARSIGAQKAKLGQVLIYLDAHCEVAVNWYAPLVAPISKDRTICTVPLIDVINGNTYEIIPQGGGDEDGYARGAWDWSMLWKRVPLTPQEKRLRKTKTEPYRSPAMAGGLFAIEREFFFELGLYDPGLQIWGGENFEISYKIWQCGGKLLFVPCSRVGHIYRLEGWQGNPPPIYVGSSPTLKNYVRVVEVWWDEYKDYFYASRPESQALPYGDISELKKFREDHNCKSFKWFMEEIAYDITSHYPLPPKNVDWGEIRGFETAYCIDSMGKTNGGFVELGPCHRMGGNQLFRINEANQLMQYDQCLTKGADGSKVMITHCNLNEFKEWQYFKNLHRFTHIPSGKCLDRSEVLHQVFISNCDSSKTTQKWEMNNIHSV", "conditions": "mM concentrations; cited from earlier work"}, "HT29 MTX cells": {"test_system": "HT29 MTX cells", "conditions": "cited from earlier work"}, "O-glycan processing": {"test_system": "O-glycan processing", "conditions": "cited from earlier work"}, "HT-29 MTX cells": {"test_system": "HT-29 MTX cells", "assay": "Viscosity of media from HT-29 MTX cells", "assay_type": "cell-based, human", "conditions": "5 mM; data not shown", "from_the_text": "In order to evaluate GalNAcβ-benzyl as an inhibitor of mucin glycosylation and secretion we used the cultured colon carcinoma cells of mucin secreting phenotypes: HT-29 metotrexate (MTX) cells selected from the HT-29 cell line by culture in the presence of MTX (kind gift from G. Huet, France). The HT-29 MTX cells were selected to yield a goblet cell like phenotype with constitutive production of MUC5AC. In order to ensure proper goblet cell differentiation the HT29MTX cell line were continuously grown up to 21 days in the presence of 5 mM GalNAcα-benzyl, 5 mM GalNAcβ-benzyl, 5 mM GlcNAcα-benzyl and without inhibitor using culture conditions as described in Hennebicq-Reig et al. (Permanent exposure of mucin-secreting HT-29 cells to benzyl-N-acetyl-alpha-D-galactosaminide induces abnormal O-glycosylation of mucins and inhibits constitutive and stimulated MUC5AC secretion. Biochem J. 1998; 334:283-95). […] Furthermore the viscosity of the media from cells with and without inhibitor was evaluated using viscosity micro-measurement."}, "β3Gal-T4": {"biological_target": "β3Gal-T4 (Homo sapiens, UniProt O96024)", "sequence (O96024 whole entry)": "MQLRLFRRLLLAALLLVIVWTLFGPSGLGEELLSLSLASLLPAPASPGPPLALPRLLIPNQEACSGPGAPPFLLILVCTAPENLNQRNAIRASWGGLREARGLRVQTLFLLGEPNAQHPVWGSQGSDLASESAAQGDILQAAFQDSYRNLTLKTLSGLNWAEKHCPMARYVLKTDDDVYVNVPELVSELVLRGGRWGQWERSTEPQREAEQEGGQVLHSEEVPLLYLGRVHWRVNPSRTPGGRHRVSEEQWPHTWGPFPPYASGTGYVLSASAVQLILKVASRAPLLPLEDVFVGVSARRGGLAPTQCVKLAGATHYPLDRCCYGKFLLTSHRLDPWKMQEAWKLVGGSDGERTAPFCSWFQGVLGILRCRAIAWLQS", "conditions": "cited from earlier work"}, "β3Gal-T5": {"biological_target": "β3Gal-T5 (Homo sapiens, UniProt Q9Y2C3)", "sequence (Q9Y2C3 whole entry, species assumed)": "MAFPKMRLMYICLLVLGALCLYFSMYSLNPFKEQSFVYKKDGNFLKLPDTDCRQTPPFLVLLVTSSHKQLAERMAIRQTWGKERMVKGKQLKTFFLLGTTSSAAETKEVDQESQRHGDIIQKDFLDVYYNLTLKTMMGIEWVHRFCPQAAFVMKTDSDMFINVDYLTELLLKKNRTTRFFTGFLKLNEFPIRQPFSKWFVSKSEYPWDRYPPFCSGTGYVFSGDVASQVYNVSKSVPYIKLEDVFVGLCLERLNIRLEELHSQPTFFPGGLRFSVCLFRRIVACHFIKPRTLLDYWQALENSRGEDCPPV", "conditions": "cited from earlier work"}, "[3]": {"biological_target": "human GalNAc-T4 (UDP-GalNAc:polypeptide N-acetylgalactosaminyltransferase T4), secreted soluble enzyme (sT4), wild type (Homo sapiens, UniProt Q8N4A0)", "sequence (Q8N4A0 36-578 limits assumed)": "as the sequence (Q8N4A0 36-578 limits assumed) above", "conditions": "binding to GalNAc-MUC1 glycopeptide", "description": "The pH of 1 ml purified protein (0.3 mg/ml) in PBS was adjusted to pH 9 with 1 M NaOH and 40 μl N-hydroxy-succinimidobiotin (Sigma) dissolved in DMF (10 mg/ml) was added. The solution was mixed end-over-end for 2 hours at room temperature, and dialyzed three times against PBS and an equal volume of glycerol was added. The biotinylated proteins were stored at −20° C. in 50% glycerol until use.\nGlycopeptides were purified by C-18 reverse phase HPLC. Peptides were custom synthesized by Neosystems (Strasbourg). Biotinylated Helix Pomatia lectin (HPA) was from KemEnTec (Denmark). Anti-MUC1 HMFG2 monoclonal antibody was a generous gift from Joyce Taylor-Papadimitriou.\nDirect binding ELISA assay was developed as follows: Polystyrene microtiter plates (Maxisorb, Nunc, Denmark) were coated with peptides or enzymatically glycosylated glycopeptides in PBS overnight at 4° C. Plates were washed and blocked with 0.1% Tween20 and 0.2% BSA in PBS for 1 h at room temperature, followed by incubation with biotinylated proteins in PBS with 0.05% Tween20 for 2 h at room temperature. After four washes with PBS, plates were incubated with 1:2,000 dilution streptavidin-HRP (Sigma) in PBS for 30 min at room temperature and washed four times with PBS. […]"}},
  "data": [
    {"molecule": "CC(=O)N[C@H]1[C@@H](OCc2ccccc2)O[C@H](CO)[C@H](O)[C@@H]1O", "note": "[BzlαGalNAc, benzyl-N-acetyl-alpha-D-galactosaminide]", "values": [
      {"measurement": "IC50", "setting": "GalNAc-T2 lectin domain", "value": 20, "unit": "mM"},
      {"measurement": "IC50", "setting": "[1]", "value": 1, "unit": "mM"},
      {"measurement": "MUC1 expression", "setting": "[2]", "value": "significant reduction"},
      {"measurement": "inhibition of lectin mediated GalNAc-glycopeptide substrate specificity of GalNAc-T7", "setting": "GalNAc-T7", "value": "can inhibit"}
    ]},
    {"molecule": "CC(=O)N[C@H]1[C@@H](OCc2ccccc2)O[C@H](CO)[C@H](O)[C@@H]1O", "note": "[GalNAcα-benzyl, benzyl-N-acetyl-alpha-D-galactosaminide]", "values": [
      {"measurement": "inhibition of mucin secretion", "setting": "HT29 MTX cells", "value": "Inhibition of mucin secretion"},
      {"measurement": "inhibition of O-glycan processing / sialylation", "setting": "O-glycan processing", "value": "inhibit sialylation"}
    ]},
    {"molecule": "CC(=O)N[C@H]1[C@H](OCc2ccccc2)O[C@H](CO)[C@H](O)[C@@H]1O", "note": "[GalNAcβ-benzyl]", "values": [
      {"measurement": "viscosity of media", "setting": "HT-29 MTX cells", "value": "less viscous"},
      {"measurement": "activity of β3Gal-T4 with the compound as acceptor", "setting": "β3Gal-T4", "value": "no or very poor activity"},
      {"measurement": "activity of β3Gal-T5 with the compound as acceptor", "setting": "β3Gal-T5", "value": "no or very poor activity"}
    ]},
    {"molecule": "CC(=O)N[C@H]1[C@@H](OCc2ccccc2)O[C@H](CO)[C@@H](O)[C@@H]1O", "note": "[GlcNAcα-benzyl]", "values": [
      {"measurement": "inhibition of GalNAc-T4 lectin binding (in words)", "setting": "[3]", "value": "no inhibition"}
    ]}
  ]
}
